The RepoRT retention time repository (doi:10.1038/s41586-021-03707-9)

What was measured:
[1] = RP, Waters ACQUITY UPLC HSS C18, 100 × 2.1 mm, 1.7 µm, 40 °C, 0.35 mL/min, estimated dead time 0.63 min; A: water + 0.1% formic acid; B: methanol + 0.1% formic acid; gradient (min/%B) 0/0.5 4/70 4.5/98 5.4/98; details: stereoisomer not certain
[2] = Waters ACQUITY UPLC BEH C18, 100 × 2.1 mm, 1.7 µm, 40 °C, 0.28 mL/min, estimated dead time 0.63 min; A: water + 6.5 mM ammonium hydroxide; B: methanol + 6.5 mM ammonium hydroxide; gradient (min/%B) 0/0.5 4/70 4.5/98 5.4/98; details: stereoisomer not certain

Row | SMILES | LC retention time [1] | LC retention time [2]
1 | CC1NC(=O)NC1CCCCCC(=O)O (stereo unspecified) | 3.88 min | 2.67 min
2 | O=C(O)Cc1ccccc1 | 2.87 min | 1.75 min
3 | CN(C)CC(=O)O | 0.77 min | 0.821 min
4 | CCC(C)(O)C(=O)O (stereo unspecified) | 2.87 min | 0.857 min
5 | O=C1OC(C(O)CO)C(O)C1O (stereo unspecified) | 0.804 min | 0.822 min
6 | O=C(O)c1ccoc1 | 3.35 min | 0.886 min
7 | COc1ccc(OC)c(C(O)C(C)N)c1 (stereo unspecified) | 3.14 min | 3.99 min
8 | Cn1cnc2c(ncn2C2OC(CO)C(O)C2O)c1=N (stereo unspecified) | 2.33 min | 3.02 min
9 | Nc1nc2nccnc2c(=O)[nH]1 | 1.73 min | 1.57 min
10 | Nc1ncnc2nc[nH]c12 | 1.05 min | 1.99 min
11 | O=C(O)c1ccc(=O)[nH]c1 | 1.96 min | 0.819 min
12 | O=C(O)CN(CCO)CCO | 0.765 min | 0.874 min
13 | OCC1OC(OCC2OC(OC3(CO)OC(CO)C(O)C3O)C(O)C(O)C2O)C(O)C(O)C1O (stereo unspecified) | 0.835 min | 1.05 min
14 | CC(CN)C(=O)O (stereo unspecified) | 0.839 min | 0.808 min
15 | Nc1ncnc2c1ncn2C1OC2COP(=O)(O)OC2C1O (stereo unspecified) | 1.95 min | 2.32 min
16 | Nc1ccccc1C(=O)O | 3.65 min | 1.76 min
17 | O=c1[nH]c(=O)c2ncn(C3OC(CO)C(O)C3O)c2[nH]1 (stereo unspecified) | 2.09 min | 1.11 min
18 | CN(CC(=O)O)C(=N)N | 0.82 min | 0.86 min
19 | CC(C)(N)C(=O)O | 0.821 min | 0.806 min
20 | NCCc1c[nH]c2ccccc12 | 2.82 min | 3.67 min
21 | NC(=O)NCCCCC(N)C(=O)O (stereo unspecified) | 0.857 min | 0.853 min
22 | c1ncc2[nH]cnc2n1 | 1.69 min | 1.85 min
23 | CNC(=C[N+](=O)[O-])NCCSCc1ccc(CN(C)C)o1 | 2.32 min | 4.28 min
24 | O=C(O)c1cc(=O)[nH]c(=O)[nH]1 | 1.01 min | 0.811 min
25 | Nc1ccn(C2CC(O)C(CO)O2)c(=O)n1 (stereo unspecified) | 1.29 min | 1.73 min
26 | NCC(O)c1ccccc1 (stereo unspecified) | 2.04 min | 3.07 min
27 | COc1cc(C(O)CN)ccc1O (stereo unspecified) | 1.16 min | 1.88 min

Row | SMILES | LC retention time [1] | LC retention time [2]
28 | CC(=O)NC(CC(C)C)C(=O)O (stereo unspecified) | 3.9 min | 2.73 min
29 | Cc1cn(C2CC(O)C(COP(=O)(O)O)O2)c(=O)[nH]c1=O (stereo unspecified) | 1.76 min | 0.908 min
30 | OCC1OC(OC2(CO)OC(CO)C(O)C2O)C(O)C(O)C1O (stereo unspecified) | 0.86 min | 0.962 min
31 | O=C1CC(C(=O)O)NC(=O)N1 (stereo unspecified) | 0.995 min | 0.767 min
32 | NCCc1ccc(O)cc1 | 1.7 min | 2.22 min
33 | CSc1ncnc2nc[nH]c12 | 3.43 min | 3.28 min
34 | Cn1c(=O)c2[nH]c(=O)[nH]c2n(C)c1=O | 2.47 min | 1.92 min
35 | O=c1ccn(C2CC(O)C(COP(=O)(O)O)O2)c(=O)[nH]1 (stereo unspecified) | 1.35 min | 0.813 min
36 | Nc1nc2c(ncn2C2OC3COP(=O)(O)OC3C2O)c(=O)[nH]1 (stereo unspecified) | 1.99 min | 1.87 min
37 | O=C(O)Cc1cnc[nH]1 | 0.825 min | 0.817 min
38 | NCCCC(=O)O | 0.761 min | 0.769 min
39 | Nc1nc2c(ncn2C2OC(CO)C(O)C2O)c(=O)[nH]1 (stereo unspecified) | 1.92 min | 1.98 min
40 | Cn1c(=O)c2[nH]cnc2n(C)c1=O | 2.9 min | 2.75 min
41 | Cc1cc2nc3c(=O)[nH]c(=O)nc-3n(CC(O)C(O)C(O)CO)c2cc1C (stereo unspecified) | 3.5 min | 3.61 min
42 | [2H]c1c([2H])c([2H])c(C(=O)NCC(=O)O)c([2H])c1[2H] | 3.22 min | 2.42 min
43 | C[N+](C)(C)CCCC(=O)[O-] | 0.814 min | 0.803 min
44 | CCCCCCCC(=O)OC(CC(=O)[O-])C[N+](C)(C)C (stereo unspecified) | 4.65 min | 5.1 min
45 | CC(=O)NCC(=O)O | 1.13 min | 0.78 min
46 | O=C(O)C1CCCCN1 (stereo unspecified) | 1.15 min | 1.14 min
47 | O=C(O)CCCCCCC(=O)O |  | 0.826 min
48 | CC(C)(CO)C(O)C(=O)NCCC(=O)O (stereo unspecified) |  | 1.7 min
49 | CC(=O)NC(CCC(N)=O)C(=O)O (stereo unspecified) |  | 0.835 min
50 | Nc1ncnc2c1ncn2C1OC(COP(=O)(O)O)C(O)C1O (stereo unspecified) |  | 0.858 min
51 | NC(=O)c1ccc[n+](C2OC(COP(=O)(O)OP(=O)(O)OCC3OC(n4cnc5c(=O)[nH]cnc54)C(O)C3O)C(O)C2O)c1 (stereo unspecified) |  | 1.26 min
52 | CSCCC(O)C(=O)O (stereo unspecified) |  | 1.5 min
53 | O=C(CO)C(OC1OC(CO)C(O)C(O)C1O)C(O)C(O)CO (stereo unspecified) |  | 0.828 min

Results, then the compound that gave them:

Row | LC retention time [1] | LC retention time [2] | SMILES
54 | 3.34 min | 4.93 min | Cc1cc2nc[nH]c2cc1C
55 | 2.9 min | 2.98 min | Oc1ccc2[nH]ccc2c1
56 | 1.25 min | 0.796 min | Nc1cc(C(=O)O)ccc1O
57 | 3.56 min | 3.67 min | COC(=O)C(Cc1ccccc1)NC(=O)C(N)CC(=O)O (stereo unspecified)
58 | 3.01 min | 3.09 min | CC(=O)NCCc1c[nH]c2ccc(O)cc12
59 | 3.49 min | 3.87 min | Cc1ccc(O)c(O)c1
60 | 3.33 min | 0.869 min | COc1cc(C(=O)O)ccc1O
61 | 3.49 min | 2.69 min | O=C(O)CNC(=O)Cc1ccccc1
62 | 0.877 min | 0.867 min | O=C(O)c1ccncc1
63 | 3.04 min | 2.15 min | O=C(NO)c1ccccc1O
64 | 2.92 min | 1.72 min | O=C(O)Cc1c[nH]c2ccc(O)cc12
65 | 3.21 min | 3.07 min | O=C(O)c1ccc2ccccc2n1
66 | 1.96 min | 1.77 min | CCCCC(N)C(=O)O (stereo unspecified)
67 | 3.45 min | 3.72 min | CC1(C)SC2C(NC(=O)C(N)c3ccccc3)C(=O)N2C1C(=O)O (stereo unspecified)
68 | 2.2 min | 2.21 min | Nc1ccccc1C(=O)CC(N)C(=O)O (stereo unspecified)
69 | 4 min | 3.24 min | CC(NC(=O)Cc1c[nH]c2ccccc12)C(=O)O (stereo unspecified)
70 | 2.66 min | 2.3 min | O=C1NS(=O)(=O)c2ccccc21
71 | 5.25 min | 5.27 min | CCCOC(=O)c1ccc(O)cc1
72 | 4.05 min | 4.19 min | COc1ccc2[nH]cc(CCNC(C)=O)c2c1
73 | 3.56 min | 3.12 min | NC(=O)c1ccccc1O
74 | 1.79 min | 1.68 min | Nc1ccccc1S(=O)(=O)O
75 | 4.4 min | 4.61 min | CCOC(=O)c1ccc(N)cc1
76 | 2.34 min | 3.32 min | O=C(O)CNC(=O)CCc1ccccc1
77 | 3.27 min | 2.69 min | NC(=O)CCC(NC(=O)Cc1ccccc1)C(=O)O (stereo unspecified)
78 | 3.39 min | 2.36 min | O=Cc1ccc(O)cc1

Row | LC retention time [1] | LC retention time [2] | SMILES
79 | 2.51 min | 2.58 min | CC(=O)Nc1ccc(O)cc1
80 | 1.27 min | 1.25 min | O=C(O)c1cccnc1
81 | 3.47 min | 0.886 min | O=C(O)c1cccc(O)c1
82 | 2.34 min | 3.38 min | CC(C)(C)NCC(O)c1ccc(O)c(CO)c1 (stereo unspecified)
83 | 4.7 min | 4.85 min | c1ccc2[nH]ccc2c1
84 | 1.29 min | 1.1 min | NC(Cc1ccc(O)c(O)c1)C(=O)O (stereo unspecified)
85 | 3.82 min | 5.01 min | CCOC(=O)C(N)Cc1c[nH]c2ccccc12 (stereo unspecified)
86 | 1.32 min | 0.812 min | Nc1cc(O)cc(C(=O)O)c1
87 | 4.18 min | 3.49 min | O=C(O)CNC(=O)C=Cc1ccccc1
88 | 5.21 min | 5.38 min | CCOC(=O)Cc1c[nH]c2ccccc12
89 | 1.97 min | 2.54 min | Cc1ncc(CO)c(C(=O)O)c1O
90 | 3.94 min | 4.91 min | CC(C)=CCNc1ncnc2nc[nH]c12
91 | 4.43 min | 5.35 min | CCOC(=O)C1=CC(OC(CC)CC)C(NC(C)=O)C(N)C1 (stereo unspecified)
92 |  | 0.78 min | NCC(O)CCC(N)C(=O)O (stereo unspecified)
93 |  | 4.3 min | O=C(O)c1ccc2ccccc2c1O
94 |  | 2.59 min | O=S(=O)(O)Oc1c[nH]c2ccccc12
95 |  | 0.969 min | Cn1cncc1CC(N)C(=O)O (stereo unspecified)
96 |  | 2.66 min | COc1ccc(CC(=O)O)cc1OC
97 |  | 2.5 min | O=C(O)CCc1ccc(O)cc1
98 |  | 3.86 min | O=C(O)CCCc1ccccc1
99 |  | 4.06 min | CCCCCCC(=O)O
100 |  | 5.32 min | CCCCC1=NC2(CCCC2)C(=O)N1Cc1ccc(-c2ccccc2-c2nn[nH]n2)cc1
101 |  | 1.63 min | O=C(O)c1cc(O)ccc1O
102 |  | 2.78 min | CC(=O)OCc1ccccc1
